The values that follow come from PubChem BioAssay AID248 (DTP/NCI, 2004).

Several values for one entry are separate records, joined by “and”; a condition that tells them apart may be missing. Identical values can stand only once. Inconclusive results and toxic doses are left out.

In the assay the test system is L1210 leukemia ip in BDF1 mice, survival T/C. Nature of the assay: NCI In Vivo Anticancer Drug Screen. Data for tumor model L1210 Leukemia (intraperitoneal) in B6D2F1 (BDF1) mice. Conditions: endpoint: mean survival time, higher = longer survival. Summed up:
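Each compound was tested against a transplantable tumor grown in mice. The endpoint was survival, with treated animals benchmarked against vehicle controls as a simple ratio.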

Where [1] appears, read: dose: 100.0 mg/kg/injection, schedule: Q01DX001 (ip), vehicle: saline.
Where [2] appears, read: dose: 200.0 mg/kg/injection, schedule: Q01DX001 (ip), vehicle: saline.
The mark [3] stands for this setting: dose: 400.0 mg/kg/injection, schedule: Q01DX001 (ip), vehicle: saline.
Setting [4] is: dose: 25.0 mg/kg/injection, schedule: Q01DX009 (ip), vehicle: saline.
Setting [5] is: dose: 50.0 mg/kg/injection, schedule: Q01DX009 (ip), vehicle: saline.
Where [6] appears, read: dose: 100.0 mg/kg/injection, schedule: Q01DX009 (ip), vehicle: saline.
[7] abbreviates: dose: 100.0 mg/kg/injection, schedule: Q04DX003 (ip), vehicle: saline.
Where [8] appears, read: dose: 200.0 mg/kg/injection, schedule: Q04DX003 (ip), vehicle: saline.

`[Cl][Rh][Cl].[NH-]c1nccs1.[NH-]c1nccs1.[NH-]c1nccs1.[NH-]c1nccs1`: the T/C runs as follows: (dose: 3.13 mg/kg/injection, schedule: Q04DX003 (ip), vehicle: distilled water + Tween-80) 103 % of control; (dose: 6.25 mg/kg/injection, schedule: Q04DX003 (ip), vehicle: distilled water + Tween-80) 96 % of control; (dose: 12.5 mg/kg/injection, schedule: Q04DX003 (ip), vehicle: distilled water + Tween-80) 97 % of control; (dose: 25.0 mg/kg/injection, schedule: Q04DX003 (ip), vehicle: distilled water + Tween-80) 96 % of control; (dose: 50.0 mg/kg/injection, schedule: Q04DX003 (ip), vehicle: distilled water + Tween-80) 103 % of control; (dose: 100.0 mg/kg/injection, schedule: Q04DX003 (ip), vehicle: distilled water + Tween-80) 102 % of control. The T/C (dose: 200.0 mg/kg/injection, schedule: Q04DX003 (ip), vehicle: distilled water + Tween-80) is 103 % of control.
For the compound `O=C1CC2(CCNCC2)C(=O)N1N1CCCCCC1`, the T/C is, setting by setting: under setting [1], 110 % of control; under setting [2], 112 % of control; under setting [3], 100 % of control.
As to `C[n+]1nc2ccccc2c(=Nc2ccccc2[N+](=O)[O-])[n-]1`, the T/C is, setting by setting: (dose: 100.0 mg/kg/injection, schedule: Q01DX001 (ip), vehicle: Klucel (hydroxypropylcellulose) (HPC)) 93 % of control; (dose: 200.0 mg/kg/injection, schedule: Q01DX001 (ip), vehicle: Klucel (hydroxypropylcellulose) (HPC)) 94 % of control; (dose: 400.0 mg/kg/injection, schedule: Q01DX001 (ip), vehicle: Klucel (hydroxypropylcellulose) (HPC)) 94 % of control.
Consider `c1ccc(C2OCC3OC(c4ccccc4)OC(C4SCCS4)C3O2)cc1` (stereo not given), for which the T/C by setting is: (dose: 100.0 mg/kg/injection, schedule: Q01DX001 (ip), vehicle: gum acacia) 92 % of control; (dose: 200.0 mg/kg/injection, schedule: Q01DX001 (ip), vehicle: gum acacia) 93 % of control; (dose: 400.0 mg/kg/injection, schedule: Q01DX001 (ip), vehicle: gum acacia) 93 % of control.
`CC(C)=CC(=O)OC1C2C(C)C(=O)OC2C(O)C(C)C2C=CC(=O)C21C` (stereo not given): the T/C (dose: 6.25 mg/kg/injection, schedule: Q01DX009 (ip), vehicle: saline with Tween-80) is 95 % of control; the T/C (dose: 12.5 mg/kg/injection, schedule: Q01DX009 (ip), vehicle: saline with Tween-80) is 97 % of control; the T/C (dose: 25.0 mg/kg/injection, schedule: Q01DX009 (ip), vehicle: Klucel (hydroxypropylcellulose) (HPC)) was 97 % of control; the T/C (dose: 25.0 mg/kg/injection, schedule: Q01DX009 (ip), vehicle: saline with Tween-80) is 103 % of control; the T/C under setting [4] is 93 % of control; the T/C (dose: 50.0 mg/kg/injection, schedule: Q01DX009 (ip), vehicle: Klucel (hydroxypropylcellulose) (HPC)) was 94 % of control. In addition, the T/C is, setting by setting: (dose: 50.0 mg/kg/injection, schedule: Q01DX009 (ip), vehicle: saline with Tween-80) 103 % of control; under setting [5], 100 % of control.
`CC(=O)N(C)N`: the T/C was 98 % of control (dose: 12.5 mg/kg/injection, schedule: Q01DX009 (ip), vehicle: saline); 112 % of control (dose: 12.5 mg/kg/injection, schedule: Q04DX003 (ip), vehicle: saline); 103 % of control under setting [4]; 106 % of control (dose: 25.0 mg/kg/injection, schedule: Q04DX003 (ip), vehicle: saline); 104 % of control under setting [5]; 106 % of control (dose: 50.0 mg/kg/injection, schedule: Q04DX003 (ip), vehicle: saline). The T/C runs as follows: under setting [6], 117 % of control; under setting [7], 108 % of control; under setting [8], 105 % of control.
On to `Cc1ccc(NC2=NCCO2)cc1`, for which the T/C (dose: 50.0 mg/kg/injection, schedule: Q01DX001 (ip), vehicle: carboxymethylcellulose (CMC)) is 104 % of control; the T/C (dose: 100.0 mg/kg/injection, schedule: Q01DX001 (ip), vehicle: carboxymethylcellulose (CMC)) was 96 % of control; the T/C (dose: 200.0 mg/kg/injection, schedule: Q01DX001 (ip), vehicle: carboxymethylcellulose (CMC)) was 98 % of control.
As for `CCCOP(=S)(N1CC1(C)C)N1CC1(C)C` (stereo not given), the T/C reads like this: (dose: 3.0 mg/kg/injection, schedule: Q01DX015 (ip), vehicle: carboxymethylcellulose (CMC)) 112 % of control; (dose: 6.0 mg/kg/injection, schedule: Q01DX015 (ip), vehicle: carboxymethylcellulose (CMC)) 105 % of control; (dose: 12.0 mg/kg/injection, schedule: Q01DX015 (ip), vehicle: carboxymethylcellulose (CMC)) 106 % of control; (dose: 25.0 mg/kg/injection, schedule: Q01DX015 (ip), vehicle: carboxymethylcellulose (CMC)) 110 % of control; (dose: 44.0 mg/kg/injection, schedule: Q01DX Z (ip), vehicle: carboxymethylcellulose (CMC)) 103 % of control; (dose: 50.0 mg/kg/injection, schedule: Q01DX015 (ip), vehicle: carboxymethylcellulose (CMC)) 115 % of control. Besides, the T/C is 113 % of control (dose: 67.0 mg/kg/injection, schedule: Q01DX Z (ip), vehicle: carboxymethylcellulose (CMC)); 151 % of control (dose: 100.0 mg/kg/injection, schedule: Q01DX015 (ip), vehicle: carboxymethylcellulose (CMC)); 111 % of control (dose: 100.0 mg/kg/injection, schedule: Q01DX Z (ip), vehicle: carboxymethylcellulose (CMC)); 122 % of control (dose: 150.0 mg/kg/injection, schedule: Q01DX Z (ip), vehicle: carboxymethylcellulose (CMC)).
For `C(=N\Nc1nc2ccccc2s1)/c1ccnc2ccccc12`, the T/C by setting is: (dose: 100.0 mg/kg/injection, schedule: Q01DX009 (ip), vehicle: Klucel (hydroxypropylcellulose) (HPC)) 102 % of control; (dose: 200.0 mg/kg/injection, schedule: Q01DX009 (ip), vehicle: Klucel (hydroxypropylcellulose) (HPC)) 101 % of control; (dose: 400.0 mg/kg/injection, schedule: Q01DX009 (ip), vehicle: Klucel (hydroxypropylcellulose) (HPC)) 96 % of control.
For the compound `CCOC(=O)C(Cc1ccccc1)NC(=O)N(CCCl)CCCl` (stereo not given), the T/C reads like this: (dose: 62.5 mg/kg/injection, schedule: Q01DX Z (ip), vehicle: water) 97 % of control; (dose: 125.0 mg/kg/injection, schedule: Q01DX Z (ip), vehicle: water) 95 % of control; (dose: 250.0 mg/kg/injection, schedule: Q01DX Z (ip), vehicle: water) 106 % of control.
In the case of `CCCCCCSc1ccccn1`, the T/C by setting is: under setting [7], 101 % of control; under setting [8], 107 % of control; (dose: 400.0 mg/kg/injection, schedule: Q04DX003 (ip), vehicle: saline) 96 % of control.
As for `NC(CCC(=O)NC(CSC(c1ccccc1)(c1ccccc1)c1ccccc1)C(=O)NCC(=O)O)C(=O)O` (stereo not given), the T/C is 109 % of control under setting [4]; 104 % of control and 114 % of control under setting [5]; 107 % of control and 113 % of control under setting [6]; 124 % of control (dose: 200.0 mg/kg/injection, schedule: Q01DX009 (ip), vehicle: saline); 90 % of control (dose: 300.0 mg/kg/injection, schedule: Q01DX009 (ip), vehicle: saline).
Turning to `CS(=O)(=O)Oc1c(Cl)cc(Cl)c2ccccc12`, the T/C is, setting by setting: under setting [1], 98 % of control; under setting [2], 92 % of control; under setting [3], 101 % of control.
`c1ccc([Si](c2ccccc2)(c2ccccc2)c2ccc(-c3ccc([Si](c4ccccc4)(c4ccccc4)c4ccccc4)cc3)cc2)cc1`: the T/C is, setting by setting: (dose: 200.0 mg/kg/injection, schedule: Q01DX001 (ip), vehicle: saline with Tween-80) 90 % of control; (dose: 400.0 mg/kg/injection, schedule: Q01DX001 (ip), vehicle: saline with Tween-80) 88 % of control.
As for `O=C(O)c1ccccc1S(=O)O`, the T/C reads like this: (dose: 50.0 mg/kg/injection, schedule: Q04DX002 (ip), vehicle: other) 119 % of control; (dose: 100.0 mg/kg/injection, schedule: Q04DX002 (ip), vehicle: other) 122 % of control; (dose: 200.0 mg/kg/injection, schedule: Q04DX002 (ip), vehicle: Klucel (hydroxypropylcellulose) (HPC)) 89 % of control; (dose: 200.0 mg/kg/injection, schedule: Q04DX002 (ip), vehicle: other) 91 % of control; (dose: 400.0 mg/kg/injection, schedule: Q04DX002 (ip), vehicle: Klucel (hydroxypropylcellulose) (HPC)) 103 % of control.
